{"source": "patent US20240417410A1", "about": "“TRICYCLIC COMPOUNDS FOR THE TREATMENT OF CANCER” (Hoffmann-La Roche Inc., priority 2023, published 2024)", "test_in_all_cases": "Cell proliferation, CTG 3D, 7 d", "assay_type_in_all_cases": "cell-based", "key": {"A549": {"test_system": "A549", "conditions": "Homo sapiens", "method": "(§1) On Day-1, cells were plated in 384-well round-bottom ultra-low adhesion plates (cat. Corning 3830, with cell density adjusted according to Table 3. The assay plate was then centrifuged at 1000 rpm for 1 minute to ensure even distribution of cells. The plate was incubated at 37° C. in a 5% CO2 atmosphere (It is worth noting that for SW1271 cell plate, it needs to be incubated in an incubator without additional CO2).\n(§2) On Day 0, Example 24 or A122 was added to each well using a Tecan HP D300E dispenser, with a 3-fold dilution across 9 doses. The final concentration of DMSO was normalized to 0.2%. The assay plate was then centrifuged at 1000 rpm for 1 minute and incubated for 7 days.\n(§3) On Day 7, CellTiter-Glo (CTG) 3D reagent (Promega G9683) was dispensed into each well of a 384-well plate using a multi-drop dispenser (Thermo Scientific 66413). A liquid handling automation workstation (Bravo with a 384-well head) was used to mix the CTG reagents. Plates were left on a shaker for 30 minutes at 450 rpm, shielded from light.\n(§4) For data analysis, the XL-fit software (Supplier: ID Business Solutions Ltd., Software version: XL fit 5.0) was utilized. The percentage of inhibition was calculated using the formula: Inhibition %=(Max-Sample value)/(Max-Min)×100. Curve fitting was performed as follows: For complete dose-response curves, the relative IC50 was reported from the fit. For incomplete curves, if minimal inhibition was greater than 50%, an IC50 less than the lowest compound concentration was reported. If minimal inhibition was between 20% and 50%, the bottom was locked at 0% and the IC50 was reported. If maximal inhibition was less than 50%, an IC50 greater than the highest compound concentration was reported."}, "CHP-212": {"test_system": "CHP-212", "conditions": "Homo sapiens", "method": "as §1, §2, §3, §4"}, "DV-90": {"test_system": "DV-90", "conditions": "Homo sapiens", "method": "as §1, §2, §3, §4"}, "H9": {"test_system": "H9", "conditions": "Homo sapiens", "method": "as §1, §2, §3, §4"}, "HCT-116": {"test_system": "HCT-116", "conditions": "Homo sapiens", "method": "as §1, §2, §3, §4"}, "HS 578T": {"test_system": "HS 578T", "conditions": "Homo sapiens, HRAS (p.G12D)", "method": "as §1, §2, §3, §4"}, "HepG2": {"test_system": "HepG2", "conditions": "Homo sapiens", "method": "as §1, §2, §3, §4"}, "KLE": {"test_system": "KLE", "conditions": "Homo sapiens, KRAS (WT ampl)", "method": "as §1, §2, §3, §4"}, "KP-2": {"test_system": "KP-2", "conditions": "Homo sapiens", "method": "as §1, §2, §3, §4"}, "MOLP8": {"test_system": "MOLP8", "conditions": "Homo sapiens, MOLP-8", "method": "as §1, §2, §3, §4"}, "Mino": {"test_system": "Mino", "conditions": "Homo sapiens", "method": "as §1, §2, §3, §4"}, "NCI-H1792": {"test_system": "NCI-H1792", "conditions": "Homo sapiens; NCI-H1792, KRAS (G12C)", "method": "as §1, §2, §3, §4"}, "NCI-H2030": {"test_system": "NCI-H2030", "conditions": "Homo sapiens; NCI-H2030, KRAS (G12C)", "method": "as §1, §2, §3, §4"}, "NCI-H2087": {"test_system": "NCI-H2087", "conditions": "Homo sapiens", "method": "as §1, §2, §3, §4"}, "NCI-H2444": {"test_system": "NCI-H2444", "conditions": "Homo sapiens; NCI-H2444, KRAS (G12V)", "method": "as §1, §2, §3, §4"}, "NCI-H441": {"test_system": "NCI-H441", "conditions": "Homo sapiens; NCI-H441, KRAS (G12V)", "method": "as §1, §2, §3, §4"}, "PK-59": {"test_system": "PK-59", "conditions": "Homo sapiens; PK-59, KRAS (G12D)", "method": "as §1, §2, §3, §4"}, "PL-21": {"test_system": "PL-21", "conditions": "Homo sapiens", "method": "as §1, §2, §3, §4"}, "PSN-1": {"test_system": "PSN-1", "conditions": "Homo sapiens, PSN1", "method": "as §1, §2, §3, §4"}, "Panc 02.03": {"test_system": "Panc 02.03", "conditions": "Homo sapiens; Panc 02.03, KRAS (G12D)", "method": "as §1, §2, §3, §4"}, "RKN": {"test_system": "RKN", "conditions": "Homo sapiens, KRAS (G12V)", "method": "as §1, §2, §3, §4"}, "SJSA-1": {"test_system": "SJSA-1", "conditions": "Homo sapiens", "method": "as §1, §2, §3, §4"}, "SUM 159PT": {"test_system": "SUM 159PT", "conditions": "Homo sapiens, HRAS (p.G12D)", "method": "as §1, §2, §3, §4"}, "SW 1088": {"test_system": "SW 1088", "conditions": "Homo sapiens, SW1088", "method": "as §1, §2, §3, §4"}, "SW620": {"test_system": "SW620", "conditions": "Homo sapiens, SW-620; SW620, KRAS (G12V)", "method": "as §1, §2, §3, §4"}, "TF-1": {"test_system": "TF-1", "conditions": "Homo sapiens", "method": "as §1, §2, §3, §4"}, "THP-1": {"test_system": "THP-1", "conditions": "Homo sapiens; THP-1, NRAS (p.G12D)", "method": "as §1, §2, §3, §4"}, "TT": {"test_system": "TT", "conditions": "Homo sapiens, KRAS (WT ampl)", "method": "as §1, §2, §3, §4"}}, "note": "Where two headings read alike, the source gives them in different places.", "data": [{"smiles": "CCn1c(-c2cc(N3CCN(C)CC3)cnc2[C@H](C)OC)c2c3cc(ccc31)-c1csc(n1)C[C@H](NC(=O)[C@H]1C[C@@H]1C)C(=O)N1CCC[C@H](N1)C(=O)OCC(C)(C)O2", "note": "[Example A122, reference compound]", "values": [{"measurement": "IC50", "setting": "A549; A549", "result": 1.1, "unit": "nM"}, {"measurement": "IC50", "setting": "CHP-212; CHP-212", "result": 1.1, "unit": "nM"}, {"measurement": "IC50", "setting": "DV-90; DV-90", "result": 4.7, "unit": "nM"}, {"measurement": "IC50", "setting": "H9; H9", "result": 1.6, "unit": "nM"}, {"measurement": "IC50", "setting": "HCT-116; HCT-116", "result": 1.9, "unit": "nM"}, {"measurement": "IC50", "setting": "HS 578T", "result": 3.1, "unit": "nM"}, {"measurement": "IC50", "setting": "HepG2; HepG2", "result": 5.5, "unit": "nM"}, {"measurement": "IC50", "setting": "KLE", "result": 100, "unit": "nM"}, {"measurement": "IC50", "setting": "KP-2", "result": 0.43, "unit": "nM"}, {"measurement": "IC50", "setting": "MOLP8", "result": 22, "unit": "nM"}, {"measurement": "IC50", "setting": "Mino; MINO", "result": 1000, "unit": "nM"}, {"measurement": "IC50", "setting": "NCI-H1792", "result": 0.43, "unit": "nM"}, {"measurement": "IC50", "setting": "NCI-H2030", "result": 0.56, "unit": "nM"}, {"measurement": "IC50", "setting": "NCI-H2087; NCI-H2087", "result": 0.44, "unit": "nM"}, {"measurement": "IC50", "setting": "NCI-H2444", "result": 0.29, "unit": "nM"}, {"measurement": "IC50", "setting": "NCI-H441", "result": 0.49, "unit": "nM"}, {"measurement": "IC50", "setting": "PK-59", "result": 0.62, "unit": "nM"}, {"measurement": "IC50", "setting": "PL-21; PL-21", "result": 2.1, "unit": "nM"}, {"measurement": "IC50", "setting": "PSN-1", "result": 1.2, "unit": "nM"}, {"measurement": "IC50", "setting": "Panc 02.03", "result": 5.2, "unit": "nM"}, {"measurement": "IC50", "setting": "RKN", "result": 0.066, "unit": "nM"}, {"measurement": "IC50", "setting": "SJSA-1; SJSA-1", "result": 3.1, "unit": "nM"}, {"measurement": "IC50", "setting": "SUM 159PT", "result": 3, "unit": "nM"}, {"measurement": "IC50", "setting": "SW 1088", "result": 2.6, "unit": "nM"}, {"measurement": "IC50", "setting": "SW620", "result": 0.23, "unit": "nM"}, {"measurement": "IC50", "setting": "TF-1; TF-1", "result": 100, "unit": "nM"}, {"measurement": "IC50", "setting": "THP-1", "result": 0.18, "unit": "nM"}, {"measurement": "IC50", "setting": "TT", "result": 5.9, "unit": "nM"}]}, {"smiles": "CO[C@@H](C)c1ncc(N2CCN(C)CC2)cc1-c1c2c3cc(cc4c3n1CCC4)-c1csc(n1)C[C@H](NC(=O)[C@H]1[C@H](C)[C@@H]1C)C(=O)N1CCC[C@H](N1)C(=O)OCC(C)(C)C2", "note": "(atropisomer, axis not shown; (M)) [Example 24, (1r,2R,3S)-N-[(7S,13S)-(20M)-20-[2-[(1S)-1-methoxyethyl]-5-(4-methylpiperazin-1-yl)-3-pyridyl]-17,17-dimethyl-8,14-dioxo-15-oxa-4-thia-9,21,30,31-tetrazahexacyclo[23.3.1.1^2,5.1^9,13.0^19,27.0^21,26]hentriaconta-1 (28),2,5 (31), 19,25 (29),26-hexaen-7-yl]-2,3-dimethyl-cyclopropanecarboxamide]", "values": [{"measurement": "IC50", "setting": "A549; A549, KRAS (G12S), read-out: IC50", "result": 0.72, "unit": "nM"}, {"measurement": "IC50", "setting": "CHP-212; CHP-212, NRAS (p.Q61K), read-out: IC50", "result": 0.35, "unit": "nM"}, {"measurement": "IC50", "setting": "DV-90; DV-90, KRAS (G13D), read-out: IC50", "result": 3.9, "unit": "nM"}, {"measurement": "IC50", "setting": "H9; H9, NRAS (p.Q61K), read-out: IC50", "result": 0.72, "unit": "nM"}, {"measurement": "IC50", "setting": "HCT-116; HCT-116, KRAS (G13D), read-out: IC50", "result": 1.9, "unit": "nM"}, {"measurement": "IC50", "setting": "HS 578T", "result": 1.7, "unit": "nM"}, {"measurement": "IC50", "setting": "HepG2; HepG2, NRAS (p.Q61L), read-out: IC50", "result": 2.1, "unit": "nM"}, {"measurement": "IC50", "setting": "KLE", "result": 100, "unit": "nM"}, {"measurement": "IC50", "setting": "KP-2; KP-2, KRAS (G12R), read-out: IC50", "result": 0.35, "unit": "nM"}, {"measurement": "IC50", "setting": "MOLP8; MOLP8, NRAS (p.Q61L), read-out: IC50", "result": 11, "unit": "nM"}, {"measurement": "IC50", "setting": "Mino; Mino, NRAS (p.G13D), read-out: IC50", "result": 3.8, "unit": "nM"}, {"measurement": "IC50", "setting": "NCI-H1792", "result": 0.21, "unit": "nM"}, {"measurement": "IC50", "setting": "NCI-H2030", "result": 0.34, "unit": "nM"}, {"measurement": "IC50", "setting": "NCI-H2087; NCI-H2087, NRAS (p.Q61K), read-out: IC50", "result": 0.21, "unit": "nM"}, {"measurement": "IC50", "setting": "NCI-H2444", "result": 0.17, "unit": "nM"}, {"measurement": "IC50", "setting": "NCI-H441", "result": 0.25, "unit": "nM"}, {"measurement": "IC50", "setting": "PK-59", "result": 0.44, "unit": "nM"}, {"measurement": "IC50", "setting": "PL-21; PL-21, KRAS (A146V), read-out: IC50", "result": 1, "unit": "nM"}, {"measurement": "IC50", "setting": "PSN-1; PSN-1, KRAS (G12R), read-out: IC50", "result": 0.85, "unit": "nM"}, {"measurement": "IC50", "setting": "Panc 02.03", "result": 3.2, "unit": "nM"}, {"measurement": "IC50", "setting": "RKN", "result": 0.045, "unit": "nM"}, {"measurement": "IC50", "setting": "SJSA-1; SJSA-1, KRAS (Q61H), read-out: IC50", "result": 2.6, "unit": "nM"}, {"measurement": "IC50", "setting": "SUM 159PT", "result": 4.5, "unit": "nM"}, {"measurement": "IC50", "setting": "SW 1088; SW 1088, NRAS (p.Q61K), read-out: IC50", "result": 0.75, "unit": "nM"}, {"measurement": "IC50", "setting": "SW620", "result": 0.1, "unit": "nM"}, {"measurement": "IC50", "setting": "TF-1; TF-1, NRAS (p.Q61P), read-out: IC50", "result": 130, "unit": "nM"}, {"measurement": "IC50", "setting": "THP-1", "result": 0.26, "unit": "nM"}, {"measurement": "IC50", "setting": "TT", "result": 2.9, "unit": "nM"}]}]}
